Where a SMILES comes first, the peptide text is derived from it. [ ]: non-standard residue; d: D form. The star is where a group is joined. Tyr(3-NO2) = N[C@@H](Cc1ccc(O)c([N+](=O)[O-])c1)C(=O)O; Phe(4-NO2) = N[C@@H](Cc1ccc([N+](=O)[O-])cc1)C(=O)O; Trp(6-Cl) = N[C@@H](Cc1c[nH]c2cc(Cl)ccc12)C(=O)O; Trp(5-F) = N[C@@H](Cc1c[nH]c2ccc(F)cc12)C(=O)O; Trp(7-Me) = Cc1cccc2c(C[C@H](N)C(=O)O)c[nH]c12; Phe(4-Cl) = N[C@@H](Cc1ccc(Cl)cc1)C(=O)O; Pip = O=C(O)[C@@H]1CCCCN1; ClAc = O=C(CCl)*
Experiments:
Pin1 [1] = target: T1, Pin1 (Homo sapiens, UniProt Q13526); test: Denaturation thermal shift assay (SYPRO Orange); assay type: binding; parameters: human Pin1 (residues 1-163); made in house; host or cells: E. coli BL21 (DE3) gold pLysS
T1 sequence (Q13526 whole entry, the tested form may be a part): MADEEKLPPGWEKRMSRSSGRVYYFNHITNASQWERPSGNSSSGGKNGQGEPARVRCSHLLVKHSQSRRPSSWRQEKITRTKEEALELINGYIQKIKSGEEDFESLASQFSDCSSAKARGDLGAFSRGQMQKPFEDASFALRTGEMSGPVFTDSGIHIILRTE
Text: (§1) Important to the success of structure activity relations studies, robust biochemical, biophysical, and cell-based assays were implemented that enabled rapid and iterative evaluations of test Pin1 targeting agents. First, the DELFIA (Dissociation-enhanced lanthanide fluorescent immunoassay) assay platform was used to derive a robust heterogeneous assay to monitor the ability of test agents to displace the binding between Pin1 and the D-Peptide (Table 1), which was obtained in a biotinylated form (FIG. 10). […] Second, for an orthogonal biophysical assay denaturation thermal shift measurements were used. Pin1 was incubated with vehicle control (buffer with 1% DMSO), or test agents at protein: ligand ratio of 1:2 (20 μM protein-40 μM compound) for 10 min at 10° C. in the presence of the fluorescent dye SYPRO Orange. The samples were gradually exposed to increasing temperature (linear gradient from 10° C. to 95° C.), causing the protein to unfold. This unfolding allowed the fluorescent dye to bind to the protein's exposed hydrophobic residues, resulting in an increase in fluorescence. The thermal shift assay measures the protein's melting temperature (Tm), which is the temperature at which the protein denatures by 50%. Ligands can affect a protein target to thermal denaturation, which could manifest in a positive or negative shift in the protein denaturation temperature (ΔTm) (Bai N, Roder H, Dickson A, & Karanicolas J (2019) Scientific Reports 9; and Kranz J K & Schalk-Hihi C (2011) Fragment-Based Drug Design: Tools, Practical Approaches, and Examples 493:277-298). Using these two assays, a series of commercially available Pin1 inhibitors were profiled (Table 1). The non-covalent agent D-peptide resulted only moderately active, with an IC50 value of ˜3 μM that closely resembled the dissociation constant for this agent determined via isothermal titration calorimetry, and the ˜ 3 μM IC50 value as reported by a fluorescence polarization assay (Pinch B J, et al. (2020) Nat Chem Biol 16(9):979-987). […] (Table 1) was observed.
Thermal shift assays for Pin1 alone and in the presence of the inhibitors were obtained with a BioRad CFX Connect Real-Time PCR Detection System. Each data point was collected in quadruplicate. Each sample was prepared using buffer 50 mM Phosphate pH 7.5, 150 mM NaCl, 1% DMSO. Protein: ligand ratio used was 1:2 (20 μM protein-40 μM compound), and SYPRO Orange was used. Incubation of the Pin1 protein with the compounds was performed at 10° C. for 10 min. Samples were then heated from 10 to 95° C. with heating increments of 0.05° C., over 30 min. Fluorescence intensity was measured within the excitation/emission ranges 470-505/540-700 nm.

Pin1 [2] = target: T1, Pin1; test: DELFIA displacement assay (displacement of biotinylated D-peptide from 6His-Pin1); assay type: binding; parameters: human Pin1 (residues 1-163); made in house; host or cells: E. coli BL21 (DE3) gold pLysS
Text: as §1
For the reported covalent agents such as sulfopin (Dubiella C, et al. (2021) Nat Chem Biol 17(9):954-963), BJP-07-017-3 (Pinch B J, et al. (2020) Nat Chem Biol 16(9):979-987), or KPT-6566 (Campaner E, et al. (2017) Nat Commun 8:15772), a 6-h pre-incubation period was included in the DELFIA assay to allow the covalent reaction to take place. For those agents, IC50 values that fell in the low nanomolar range were observed, consistent with what was reported previously for those compounds. […] To make those determinations in a broader panel of cancer cell lines three pancreatic cancer cell lines, BxPC3, MIA-PaCa-2, and PANC-1, the breast cancer cell line MDA-MB-231, the prostate cancer cell line PC3, and the non-small cell lung cancer cell line A549 were chosen. Each cell line represents various states of KRAS activating mutations (for example BxPC3 is wt-KRAS, while MIAPaCa2 carries the KRAS(G12C) mutation, and the PANC-1 the KRAS(G12D) (Miquel M, Zhang S, & Pilarsky C (2021) Front Cell Dev Biol 9:748631), A549 is KRAS(G12S) (Wang H, et al. (2019) EBioMedicine 49:106-117), MDA-MB-231 is KRAS(G13D) (Kim R K, et al. (2015) Exp Mol Med 47(1):e137), PC3 is wt-KRAS (Bouali S, et al. (2009) Oncol Rep 21(3):731-735). Pin1 protein levels in these cell lines were established using a specific Pin1 antibody in western blot analyses (FIG. 1A). The data confirmed that all these selected human cancer cell lines expressed a significant level of Pin1 (FIG. 1A).
Each well of 96-well streptavidin-coated plates (PerkinElmer) was incubated with 100 μL of 200 nM biotinylated D-peptide for 2 h and washed 3 times with a wash solution (PerkinElmer). Subsequently, a mixture containing Pin1, and a serial dilution of the test compounds were pre-incubated for 6 h. Eu-N1-labeled anti-6x-His antibody (PerkinElmer, 1:2000) was then added to this mixture and further incubated in the biotinylated D-peptide-bound plates for another 2 h. […]

[3] = Table 5, only one transition given
[4] = Table 4, single transition, ± SE of four replicates
[5] = Table 3, single transition, ± SE of four replicates
[6] = Table 4, two transitions observed, likely incomplete complex formation

Row | SMILES | ΔTm (° C.) (Pin1 [1]; [4]) | IC50 (Pin1 [2]; Table 4, ± SD from duplicates) | IC50 (Pin1 [2]; Table 3, ± SD from duplicates) | further results
1 | O=C(CCl)N[C@@H](Cc1c[nH]c2ccccc12)C(=O)N1CCCC[C@H]1C(=O)NCCc1c[nH]c2cc(Cl)cc(Cl)c12 [164A3] | – | – | – | ΔTm (° C.) (Pin1 [1]; [3]): −13.68 ± 0.20 °C; IC50 (Pin1 [2]; Table 5): 1180 ± 45 nM
2 | NC(=O)[C@H](Cc1c[nH]c2ccccc12)NC(=O)[C@@H]1C[C@H]2CCCC[C@@H]2N1C(=O)[C@@H]1Cc2c([nH]c3ccccc23)CN1C(=O)CCl [164A4] | −20.46 ± 0.04 °C | 35 ± 5 nM | – | –
3 | NC(=O)[C@H](Cc1c[nH]c2cc(Cl)ccc12)NC(=O)[C@@H]1CCCCN1C(=O)[C@H](Cc1c[nH]c2ccccc12)NC(=O)CCl [158H12] (ClAc-Trp-[Pip]-[Trp(6-Cl)]-NH2) | −9.21 ± 0.08 °C | 31 ± 1 nM | – | –
4 | Cc1cccc2c(C[C@H](NC(=O)[C@@H]3CCCCN3C(=O)[C@@H]3Cc4c([nH]c5ccccc45)CN3C(=O)CCl)C(N)=O)c[nH]c12 [164A11] | +10.45 ± 0.07 °C | – | – | –
5 | O=C(CCl)N[C@@H](Cc1cccc(O)c1)C(=O)N1CCCC[C@H]1C(=O)NCCc1c[nH]c2cc(Cl)cc(Cl)c12 [164A2] | – | – | 289 ± 23 nM | share of first thermal shift peak (Pin1 [1]; Table 3, percentage in brackets after first ΔTm): 10%; share of second thermal shift peak (Pin1 [1]; Table 3, percentage in brackets after second ΔTm): 90%; ΔTm (° C.), first of two peaks (Pin1 [1]; Table 3, two peaks observed, likely incomplete complex formation): −0.25 ± 0.31 °C
6 | NC(=O)[C@H](Cc1c[nH]c2ccccc12)NC(=O)[C@@H]1CCCCN1C(=O)[C@H](Cc1c[nH]c2ccc(F)cc12)NC(=O)CCl [158H8] (ClAc-[Trp(5-F)]-[Pip]-Trp-NH2) | −9.81 ± 0.16 °C | 43.5 ± 0.8 nM | – | –
7 | NC(=O)[C@H](Cc1c[nH]c2ccccc12)NC(=O)[C@@H]1CCCCN1C(=O)[C@H](Cc1ccc([N+](=O)[O-])cc1)NC(=O)CCl [158G2] (ClAc-[Phe(4-NO2)]-[Pip]-Trp-NH2) | – | – | 134 ± 13 nM | ΔTm (° C.) (Pin1 [1]; [5]): −10.16 ± 0.04 °C
8 | NC(=O)[C@H](Cc1c[nH]c2ccccc12)NC(=O)[C@@H]1CCCCN1C(=O)[C@H](Cc1ccc(O)c([N+](=O)[O-])c1)NC(=O)CCl [158G10] (ClAc-[Tyr(3-NO2)]-[Pip]-Trp-NH2) | – | – | 183 ± 12 nM | ΔTm (° C.) (Pin1 [1]; [5]): −10.44 ± 0.17 °C
9 | Cc1cccc2c(C[C@H](NC(=O)CCl)C(=O)N3CCCC[C@H]3C(=O)N[C@@H](Cc3c[nH]c4ccccc34)C(N)=O)c[nH]c12 [158H7] (ClAc-[Trp(7-Me)]-[Pip]-Trp-NH2) | −10.11 ± 0.20 °C | 91 ± 9 nM | – | –
10 | CC1(C)[C@H]2C[C@@H](C(=O)N[C@@H](Cc3c[nH]c4ccccc34)C(N)=O)N(C(=O)[C@@H]3Cc4c([nH]c5ccccc45)CN3C(=O)CCl)[C@H]21 [164A12] | – | 44 ± 1 nM | – | share of first denaturation transition (Pin1 [1]; Table 4, percentage in brackets after first ΔTm): 30%; share of second denaturation transition (Pin1 [1]; Table 4, percentage in brackets after second ΔTm): 70%; ΔTm (° C.), first of two denaturation transitions (Pin1 [1]; [6]): +1.03 ± 0.13 °C; ΔTm (° C.), second printed of two denaturation transitions (Pin1 [1]; [6]): −19.18 ± 0.07 °C
11 | NC(=O)[C@H](Cc1c[nH]c2ccccc12)NC(=O)[C@@H]1CCCCN1C(=O)[C@H](Cc1ccc(Cl)cc1)NC(=O)CCl [158G12] (ClAc-[Phe(4-Cl)]-[Pip]-Trp-NH2) | – | – | 527 ± 38 nM | ΔTm (° C.) (Pin1 [1]; [3]): −12.19 ± 0.07 °C
